This is an account of results in US20060148694A1, “Inhibition of stress-induced ligand-dependent egfr activation” (Max-Planck-Gesellschaft zur Foerderung der Wessenschaften. …, priority 2003, published 2006).

Data set [1] concerns ERK1/2. Description: ERK1/2 phosphorylation immunoblot in Cos-7 cells (pcDNA3-HA-ERK2). The data set is classed as cell-based. Particulars: AG1478 250 nM, BB94 10 μM, Crm197 10 μg/mL 20 min, stimulated 30 min, FIG. 6A. On the procedure:
(§1) FIG. 6. MAPK activation in response to stress agents and blockade of EGFR, metalloprotease and HB-EGF function. (A) Cos-7 cells transiently transfected with pcDNA3-HA-ERK2, TCC-Sup and NCI-H292 cells were pre-treated with AG1478 (250 nM), BB94 (10 μM), Crm197 (10 μg/mL) or an equal volume of empty vehicle (DMSO) for 20 min and stimulated with 0.3 M sorbitol or 200 μM hydrogen peroxide for 30 min. After cell lysis total lysates were immunoblotted with anti-phospho-ERK antibody, followed by reprobing of the same membranes with polyclonal anti-ERK antibody. Quantitative analysis of ERK phosphorylation from three independent experiments (mean[…]s.d.) using the FUJI LAS1000 imaging system. (B) Cos-7 and NCI-H292 cell were treated as described under (A). After lysis, JNK was immunoprecipitated using an anti-JNK antibody, and JNK activity was assayed using GST-c-JUN fusion protein as a substrate. Phosphorylated GST-c-JUN was visualized by autoradiography and JNK was immunoblotted in parallel using polyclonal JNK antibody. Quantitative analysis of GST-c-JUN phosphorylation from three independent experiments (mean[…]s.d.) using the FUJI LAS1000 imaging system. TCC-Sup cells were treated as described under (A). […]
(§2) Cells were lysed and proteins immunoprecipitated as described before (Daub et al., 1997). […] Phosphotyrosine was detected with the 4G10 monoclonal antibody (UBI, Lake Placid, N.Y.). […]

In another data set the test system is p38. The data set is described as follows: p38 phosphorylation immunoblot in Cos-7 cells. Particulars: AG1478 250 nM 20 min, 0.3 M sorbitol or 200 μM hydrogen peroxide, FIG. 2A. The data set is classed as cell-based. On the procedure:
FIG. 2. p38 mediates stress-induced EGFR phosphorylation. (A) Time-coure of p38 phosphorylation dependent on EGFR kinase function. Cos-7 cells were pretreated with AG1478 (250 nM) or an equal volume of empty vehicle (DMSO) for 20 min and stimulated with 0.3 M sorbitol or 200 μM hydrogen peroxide for the indicated periods. Cell extracts were immunoblotted with anti-phospho-p38 antibody and reprobing of the same filters with polyclonal anti-p38 antibody. (B) Stress-induced EGFR activation depends on p38 but not ERK activity in Cos-7 cells. Cos-7 cells were pre-treated with PD98059 (50 μM), SB202190 (10 μM) or an equal volume of empty vehicle (DMSO) for 30 min and stimulated with 0.3 M sorbitol and 200 μM hydrogen peroxide for 10 min and the GPCR agonist LPA (10 μM) or EGF (2 ng/mL) for 3 min as positive controls. Cell extracts were assayed for EGFR tyrosine phosphorylation content. (C) Stress-induced EGFR activation depends on p38 activity in TCC-Sup carcinoma cells. […]
FIG. 6. […] Quantitative analysis of ERK phosphorylation from three independent experiments (mean[…]s.d.) using the FUJI LAS1000 imaging system. […] Quantitative analysis of GST-c-JUN phosphorylation from three independent experiments (mean[…]s.d.) using the FUJI LAS1000 imaging system. […]

Data set [2] deals with ERK1/2. Description: ERK1/2 phosphorylation immunoblot in NCI-H292 cells. Type of data set: cell-based, human. Particulars: AG1478 250 nM, BB94 10 μM, Crm197 10 μg/mL, FIG. 6A. On the procedure: as §1, §2
Data set [3] concerns ERK1/2. The data set is described as follows: ERK1/2 phosphorylation immunoblot in TCC-Sup cells. Type of data set: cell-based, human. The conditions noted are these: AG1478 250 nM, BB94 10 μM, Crm197 10 μg/mL, FIG. 6A. On the procedure:
as §1, §2

For data set [4], the system named is EGFR. Description: EGFR tyrosine phosphorylation (IP/immunoblot) in NCI-H292 lung carcinoma cells. Type of data set: cell-based, human. The conditions noted are these: for stress-induced EGFR activation upon siRNA transfection: 0.3 M sorbitol or 200 μM hydrogen peroxide 10 min.
The test system of data set [5] is EGFR. The data set is described as follows: EGFR tyrosine phosphorylation (IP/immunoblot) in Cos-7 cells. The data set is classed as cell-based. The conditions noted are these: for stress-induced EGFR activation: pre-treated 30 min with SB202190 10 μM or PD98059 50 μM, 0.3 M sorbitol or 200 μM hydrogen peroxide 10 min; for EGFR activation by oxidative stress: Src inhibitors, unpublished data; for EGFR activation after sorbitol or hydrogen peroxide upon siRNA transfection: both stress stimuli, 10 min, FIG. 5B.

The target of data set [6] is epidermal growth factor receptor (EGFR) (UniProt P00533). The data set is described as follows: cell-based or functional assay.
For another data set, the system named is ADAM9. Description: RNA interference, gene expression by RT-PCR in NCI-H292 cells. The data set is classed as cell-based, human. The conditions noted are these: 2 days after transfection, FIG. 5A. On the procedure:
(§3) FIG. 5. Effect of siRNAs against different ADAM proteins on stress-induced EGFR phosphorylation. (A) Blockade of ADAM metalloprotease expression by RNA interference (RNAi). NCI-H292 cells were transfected with siRNA against ADAM9, ADAM10 or ADAM15, cultured for 2 days and analyzed for gene expression by RT-PCR as indicated. (B) Cos-7 cells were transfected with siRNAs against ADAM9, -10, -12, -15 and -17, serum-starved for 24 hours, stimulated with 0.3 M sorbitol or 200 μM hydrogen peroxide for 10 min and assayed for EGFR tyrosine phosphorylation content. (C)NCI-H292 cells were treated as described under (B).
(§4) Transfection of 21-nucleotide siRNA duplexes (Dharmacon Research, Lafayette, Colo., USA) for targeting endogenous genes was carried out using Oligofectamine (Invitrogen) for NCI-H292 cells and 4.2 μg siRNA duplex per 6-well plate as previously described (Elbashir et al., 2001). Cos-7 cells were transfected using Lipofectamine 2000 (Invitrogen) according to the manufacturer's protocol. Briefly, 8.4 μg siRNA duplex per 6 cm dish were incubated with 10 μL Lipofectamine 2000 in 1 mL serum-free medium for 20 minutes. The transfection mixture was added to the cell culture medium containing serum and, after 6 h, cells were washed and incubated in medium containing serum overnight. NCI-H292 and Cos-7 cells were serum-starved and assayed 2 d after transfection. Highest efficiencies in silencing target genes were obtained by using mixtures of siRNA duplexes targeting different regions of the gene of interest. Sequences of siRNA used were
(§5) Specific silencing of targeted genes was confirmed by RT-PCR analysis. RNA isolated using RNeasy Mini Kit (Qiagen, Hilden, Germany) was reverse transcribed using AMV Reverse Transcriptase (Roche, Mannheim, Germany). PuReTaq Ready-To-Go PCR Beads (Amersham Biosciences, Piscataway, N.J.) were used for PCR amplification. Primers (Sigma Ark, Steinheim, Germany) were
(§6) PCR products were subjected to electrophoresis on a 2.5% agarose gel and DNA was visualized by ethidium bromide staining.

The next data set relates to ADAM10. The data set is described as above. Type of data set: cell-based, human. Particulars: 2 days after transfection, FIG. 5A. On the procedure: as §3, §4, §5, §6
For a further data set, the system named is ADAM15. The data set is described as above. The data set is classed as cell-based, human. The conditions noted are these: 2 days after transfection, FIG. 5A. On the procedure: as §3, §4, §5, §6

As for `COc1cc2ncnc(Nc3cccc(Cl)c3)c2cc1OC` [AG1478], in the data set on ERK1/2 [1], the “sorbitol and hydrogen peroxide-induced activation of ERK1/2” value is “blocked”. Further, the “p38 phosphorylation in response to stress agents” value in the data set with p38 is listed as “did not affect”. In addition, the “hyperosmolarity and oxidative stress-induced ERK1/2 activation” value in the data set with ERK1/2 [2] and with ERK1/2 [3] was “substantially blocked” each time.
Turning to `CNC(=O)[C@H](Cc1ccccc1)NC(=O)[C@H](CC(C)C)[C@H](CSc1cccs1)C(=O)NO` [BB94, Batimastat], the “inhibition of stress-induced EGFR activation” value in the data set on EGFR [4] (BB94 10 μM 20 min, sorbitol 0.3 M or hydrogen peroxide 200 μM 10 min, printed 'inhibited ... to 50%') was found to be 50%.
Take `COc1cccc(-c2cc(=O)c3ccccc3o2)c1N` [PD98059]: the “stress-induced EGFR activation” value with EGFR [5] (FIG. 2B) was “did not affect”.
Take `Cc1ccc(-c2nn(C(C)(C)C)c3ncnc(N)c23)cc1` [PP1]: the “EGFR activation by oxidative stress” value in the data set with EGFR [5] was “did not achieve specific inhibition”.
As for `CC(C)(C)n1nc(-c2ccc(Cl)cc2)c2c(N)ncnc21` [PP2], the “EGFR activation by oxidative stress” value in the data set on EGFR [5] is “did not achieve specific inhibition”.
On to `Oc1ccc(-c2nc(-c3ccncc3)c(-c3ccc(F)cc3)[nH]2)cc1` [SB202190], for which the EGF-induced receptor phosphorylation result in the data set with EGFR [5] (SB202190 10 μM 30 min, EGF 2 ng/mL 3 min, FIG. 2B) is “unaffected”. Besides, the LPA-induced receptor phosphorylation result with EGFR [5] (SB202190 10 μM 30 min, LPA 10 μM 3 min, FIG. 2B) is recorded as “unaffected”. In the data set on EGFR [5] (FIG. 2B), the “stress-induced EGFR activation” value is recorded as “completely abrogated”.
“HB-EGF (from UniProt Q99075 20-208) (ligand)” registered a JNK activity in response to oxidative stress (Cos-7 cells; kinase assay with GST-c-JUN) in data set [6] of 50%.
Regarding “siRNA against ADAM9: mixture of 21-nucleotide siRNA duplexes, SEQ ID NO 1 and 2, targeting ADAM9 (chain 1 AAUCACUGUGGAGACAUUUGCTT; chain 2 AAACUUCCAGUGUGUAGAUGCTT; chemistry not fully specified)”, in the data set on ADAM9, the “knockdown of target gene expression (ADAM9)” value was “efficient and specific knockdown”. Also, in the data set with EGFR [4] (FIG. 5C), the “stress-induced EGFR activation upon siRNA transfection” value is listed as “participate in the stress response”.
For “siRNA against ADAM10: mixture of 21-nucleotide siRNA duplexes, SEQ ID NO 3 and 4, targeting ADAM10 (chain 1 AAUGAAGAGGGACACUUCCCUTT; chain 2 AAGUUGCCUCCUCCUAAACCATT; chemistry not fully specified)”, in the data set with EGFR [5], the “EGFR activation after sorbitol or hydrogen peroxide upon siRNA transfection” value is on record as “involved in EGFR activation”. Moreover, the “knockdown of target gene expression (ADAM10)” value in the data set with ADAM10 is “efficient and specific knockdown”.
On to “siRNA against ADAM12: mixture of siRNA duplexes, SEQ ID NO 5 and 6, targeting ADAM12 (chain 1 AACCUCGCUGCAAAGAAUGUGTT; chain 2 AAGACCUUGATACGACUGCUGTT; chemistry not fully specified)”, for which, in the data set on EGFR [4] (200 μM hydrogen peroxide, FIG. 5C), the “EGFR activation upon siRNA transfection, hydrogen peroxide treatment only” value is reported as “participate in the stress response”.
As to “siRNA against ADAM15: mixture of siRNA duplexes, SEQ ID NO 7 and 8, targeting ADAM15 (chain 1 AACUCCAUCUGUUCUCCUGACTT; chain 2 AAAUUGCCAGCUGCGCCCGUCTT; chemistry not fully specified)”, the “knockdown of target gene expression (ADAM15)” value in the data set on ADAM15 is “efficient and specific knockdown”.

B1: siRNA against ADAM17: mixture of siRNA duplexes, SEQ ID NO 9 to 11, targeting ADAM17 (nucleic acid)
chain 1: AAAGUUUGCUUGGCACACCUUTT
chain 2: AAGUAAGGCCCAGGAGUGUUTT
chain 3: AACAUAGAGCCACUUUGGAGATT
modifications: chemistry not fully specified
With B1, the “EGFR activation after sorbitol or hydrogen peroxide upon siRNA transfection” value in the data set with EGFR [5] is “involved in EGFR activation”. In addition, the “stress-induced EGFR activation upon siRNA transfection” value with EGFR [4] (FIG. 5C) was “involved in stress-induced EGFR activation”.
